Test results taken from patent publication US10532053B2, “Histone deacetylase inhibitor, and preparation method and use thereof” (GUANGDONG ZHONGSHENG PHARMACEUTICAL CO., LTD, priority 2015, dated 2020).
Where two headings read alike, the source gives them in different places.

What was measured:
[1] = molecular target: T1, HDAC1 (Homo sapiens, UniProt Q13547); test: HDAC inhibitory activity, fluorescence-coupled acetylated peptide substrate assay (Lys-Ac-AMC); format: biochemical
T1 construct: purchased BPS Bioscience

[2] = tested on: HBL-1 cells; test: Therapeutic effect on the B-cell lymphoma HBL-1 subcutaneous tumor model; format: in vivo, NOD/SCID mice; conditions: HBL-1 model, 9 times, vs solvent group
[3] = tested on: Ramos cells; test: Therapeutic effect on the B-cell lymphoma Ramos subcutaneous tumor model; format: in vivo, NOD/SCID mice; conditions: 6 times; for tumor inhibitory rate: vs solvent group
[4] = tested on: Ovarian cancer A2780s; test: Cell proliferative activity (MTT / cck-8); format: cell-based; conditions: Homo sapiens, read-out: Half-Inhibitory Concentration IC50 A2780s
[5] = molecular target: HDAC3 (Homo sapiens, UniProt O15379); conditions: read-out: IC50 HDAC3; Table 4, Class I
Protocol: The HDAC inhibitory activity was determined by fluorescence-coupled acetylated peptide substrate assay (Lys-Ac-AMC). […] The small molecule compounds of the present invention were prepared by being dissolved in 100% DMSO. HDAC was prepared in a buffer at a certain concentration as an enzyme solution; trypsin and fluorescent group 4-amino-7-coumarin coupled-acetylated peptide (Ac-peptide) substrate were prepared in a buffer at a certain concentration as a substrate solution. The compounds were added into the reaction wells in a 384-well plate at a designed concentration of 10 μM, 1 μM, 0.5 μM, 0.1 μM, 0.05 μM, 0.01 μM, 0.005 μM, 0.001 μM, and 0.00005 μM, respectively, and then 15 μl of the HDAC solution was added into the reaction wells (15 μl of blank buffer to the control well). […] The results were analyzed by GraphPad Prism software and IC50 values were calculated according to the formula: Y=Background Data+(Top Data−Background Data)/(1+10^((Log IC50−X) a curve slope)), where Y: the inhibition rate (%) and X: the concentration of the compound.

[6] = molecular target: HDAC2 (Homo sapiens, UniProt Q92769); conditions: read-out: IC50 HDAC2
Protocol: (§2) The HDAC inhibitory activity was determined by fluorescence-coupled acetylated peptide substrate assay (Lys-Ac-AMC). HDAC1 protein was purchased from BPS Bioscience, and the reaction buffer system was a modified tris(hydroxymethyl)aminomethane buffer (pH 7.0). The small molecule compounds of the present invention were prepared by being dissolved in 100% DMSO. HDAC was prepared in a buffer at a certain concentration as an enzyme solution; trypsin and fluorescent group 4-amino-7-coumarin coupled-acetylated peptide (Ac-peptide) substrate were prepared in a buffer at a certain concentration as a substrate solution. The compounds were added into the reaction wells in a 384-well plate at a designed concentration of 10 μM, 1 μM, 0.5 μM, 0.1 μM, 0.05 μM, 0.01 μM, 0.005 μM, 0.001 μM, and 0.00005 μM, respectively, and then 15 μl of the HDAC solution was added into the reaction wells (15 μl of blank buffer to the control well). […] The results were analyzed by GraphPad Prism software and IC50 values were calculated according to the formula: Y=Background Data+(Top Data−Background Data)/(1+10^((Log IC50−X) a curve slope)), where Y: the inhibition rate (%) and X: the concentration of the compound.

[7] = molecular target: HDAC10 (Homo sapiens, UniProt Q969S8); conditions: read-out: IC50 HDAC10; Table 4, Class IIb
Protocol: as §2

[8] = tested on: Lung cancer A549; test: Cell proliferative activity (MTT / cck-8); format: cell-based; conditions: Homo sapiens, read-out: Half-Inhibitory Concentration IC50 A549
[9] = tested on: MV4-11 cells; test: Therapeutic effect on the MV4-11 acute myeloid leukemia model; format: in vivo, NOD/SCID mice; conditions: MV4-11 model, 50 mg/kg intravenously once every other day, 12 times
[10] = tested on: Multiple myeloma U266; test: Cell proliferative activity (MTT / cck-8); format: cell-based; conditions: Homo sapiens, U-266, read-out: Half-Inhibitory Concentration IC50 U266
How it was run: (§1)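 Logarithmic-phase tumor cells were plated at 2000-3000 cells/well in 96-well plates, adherent lines allowed to attach. Proliferation was read by MTT for solid-tumor lines and by CCK-8 for hematologic lines.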

[11] = tested on: Leukemia K562; test: Cell proliferative activity (MTT / cck-8); format: cell-based; conditions: Homo sapiens, read-out: Half-Inhibitory Concentration IC50 K562
How it was run: as §1

[12] = tested on: Human liver cancer cell HepG2; test: Cell proliferative activity (MTT / cck-8); format: cell-based
How it was run: as §1

[13] = tested on: Human ovarian cancer cell SKOV-3; test: Cell proliferative activity (MTT / cck-8); format: cell-based
How it was run: as §1

[14] = tested on: B-cell lymphoma Ramos; test: Cell proliferative activity (MTT / cck-8); format: cell-based; conditions: Homo sapiens, read-out: Half-Inhibitory Concentration IC50 Ramos
How it was run: as §1

[15] = tested on: Human melanoma A375; test: Cell proliferative activity (MTT / cck-8); format: cell-based; conditions: A-375, incubated for 96 hours, read-out: Half-Inhibitory Concentration IC50 Human melanoma A375
How it was run: as §1

[16] = tested on: Human lung cancer cell H460; test: Cell proliferative activity (MTT / cck-8); format: cell-based
How it was run: as §1

[17] = tested on: Leukemia MV4-11; test: Cell proliferative activity (MTT / cck-8); format: cell-based; conditions: Homo sapiens, read-out: Half-Inhibitory Concentration IC50 MV4-11
How it was run: as §1

[18] = tested on: Multiple myeloma RPMI8226; test: Cell proliferative activity (MTT / cck-8); format: cell-based; conditions: Homo sapiens, RPMI-8226, read-out: Half-Inhibitory Concentration IC50 RPMI8226
How it was run: as §1

[19] = tested on: Human cervical cancer cell Hela; test: Cell proliferative activity (MTT / cck-8); format: cell-based
How it was run: as §1

[20] = molecular target: T2, HDAC8 (Homo sapiens, UniProt Q9BY41); test: HDAC inhibitory activity, fluorescence-coupled acetylated peptide substrate assay
T2 sequence (Q9BY41 1-377): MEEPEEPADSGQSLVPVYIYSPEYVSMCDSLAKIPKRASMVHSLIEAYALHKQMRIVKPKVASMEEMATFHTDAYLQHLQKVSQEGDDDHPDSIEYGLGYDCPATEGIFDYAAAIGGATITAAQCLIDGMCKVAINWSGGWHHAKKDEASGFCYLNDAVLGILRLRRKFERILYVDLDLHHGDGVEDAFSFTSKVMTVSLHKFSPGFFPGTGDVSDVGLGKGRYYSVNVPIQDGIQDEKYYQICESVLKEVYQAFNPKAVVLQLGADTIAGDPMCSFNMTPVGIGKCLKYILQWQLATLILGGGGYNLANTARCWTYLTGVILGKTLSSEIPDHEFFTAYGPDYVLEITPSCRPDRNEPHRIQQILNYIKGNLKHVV
Protocol: as §2

[21] = tested on: HCT116 cells; test: Therapeutic effect on the colon cancer HCT116 model (intravenous)
[22] = 10 mg/kg intragastrically once every other day
[23] = 20 mg/kg intragastrically once every other day
[24] = 40 mg/kg intragastrically once every other day
[25] = 80 mg/kg intragastrically once every other day

T1 sequence (Q13547 whole entry): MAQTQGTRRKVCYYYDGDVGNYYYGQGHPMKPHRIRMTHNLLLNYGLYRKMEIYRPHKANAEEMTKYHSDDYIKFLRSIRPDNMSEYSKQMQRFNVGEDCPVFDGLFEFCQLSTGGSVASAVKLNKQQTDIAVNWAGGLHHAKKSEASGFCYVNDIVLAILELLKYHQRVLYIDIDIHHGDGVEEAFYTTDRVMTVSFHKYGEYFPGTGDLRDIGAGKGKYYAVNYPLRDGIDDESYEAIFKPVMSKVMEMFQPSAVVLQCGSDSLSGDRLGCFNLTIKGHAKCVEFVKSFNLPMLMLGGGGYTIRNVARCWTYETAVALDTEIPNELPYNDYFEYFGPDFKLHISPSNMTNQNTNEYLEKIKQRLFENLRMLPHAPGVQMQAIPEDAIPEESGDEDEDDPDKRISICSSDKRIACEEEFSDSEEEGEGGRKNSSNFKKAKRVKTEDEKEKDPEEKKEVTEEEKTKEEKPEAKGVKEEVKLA
HDAC3, sequence (O15379 whole entry): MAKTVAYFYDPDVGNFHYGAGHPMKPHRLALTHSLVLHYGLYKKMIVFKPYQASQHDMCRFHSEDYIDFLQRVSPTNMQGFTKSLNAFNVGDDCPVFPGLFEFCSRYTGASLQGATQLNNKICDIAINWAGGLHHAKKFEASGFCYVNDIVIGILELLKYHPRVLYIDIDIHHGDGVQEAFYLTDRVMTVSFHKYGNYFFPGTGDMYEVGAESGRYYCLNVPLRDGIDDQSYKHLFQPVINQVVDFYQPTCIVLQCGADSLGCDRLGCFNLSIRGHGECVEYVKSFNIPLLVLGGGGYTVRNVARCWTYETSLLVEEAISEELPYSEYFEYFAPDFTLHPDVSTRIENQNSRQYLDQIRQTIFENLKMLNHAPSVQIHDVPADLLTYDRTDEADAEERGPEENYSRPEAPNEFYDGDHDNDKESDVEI
HDAC3, sequence (Q9Y618 395-489 partner limits assumed): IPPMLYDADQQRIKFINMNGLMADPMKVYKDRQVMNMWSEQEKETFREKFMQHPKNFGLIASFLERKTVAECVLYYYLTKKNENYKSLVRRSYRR
HDAC2, sequence (Q92769 whole entry): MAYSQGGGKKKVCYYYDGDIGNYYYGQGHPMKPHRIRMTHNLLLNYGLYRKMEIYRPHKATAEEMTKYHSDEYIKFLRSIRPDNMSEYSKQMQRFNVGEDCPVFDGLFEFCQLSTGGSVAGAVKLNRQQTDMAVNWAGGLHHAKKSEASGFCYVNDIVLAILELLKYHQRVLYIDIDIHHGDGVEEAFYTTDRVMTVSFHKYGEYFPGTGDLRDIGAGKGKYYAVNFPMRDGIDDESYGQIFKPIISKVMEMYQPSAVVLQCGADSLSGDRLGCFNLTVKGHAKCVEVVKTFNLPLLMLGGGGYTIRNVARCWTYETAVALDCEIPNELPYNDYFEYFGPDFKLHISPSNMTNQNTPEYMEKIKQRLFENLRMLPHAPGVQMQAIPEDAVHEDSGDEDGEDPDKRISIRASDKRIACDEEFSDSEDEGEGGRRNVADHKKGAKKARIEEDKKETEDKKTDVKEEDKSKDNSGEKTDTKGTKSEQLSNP
HDAC10, sequence (Q969S8 whole entry): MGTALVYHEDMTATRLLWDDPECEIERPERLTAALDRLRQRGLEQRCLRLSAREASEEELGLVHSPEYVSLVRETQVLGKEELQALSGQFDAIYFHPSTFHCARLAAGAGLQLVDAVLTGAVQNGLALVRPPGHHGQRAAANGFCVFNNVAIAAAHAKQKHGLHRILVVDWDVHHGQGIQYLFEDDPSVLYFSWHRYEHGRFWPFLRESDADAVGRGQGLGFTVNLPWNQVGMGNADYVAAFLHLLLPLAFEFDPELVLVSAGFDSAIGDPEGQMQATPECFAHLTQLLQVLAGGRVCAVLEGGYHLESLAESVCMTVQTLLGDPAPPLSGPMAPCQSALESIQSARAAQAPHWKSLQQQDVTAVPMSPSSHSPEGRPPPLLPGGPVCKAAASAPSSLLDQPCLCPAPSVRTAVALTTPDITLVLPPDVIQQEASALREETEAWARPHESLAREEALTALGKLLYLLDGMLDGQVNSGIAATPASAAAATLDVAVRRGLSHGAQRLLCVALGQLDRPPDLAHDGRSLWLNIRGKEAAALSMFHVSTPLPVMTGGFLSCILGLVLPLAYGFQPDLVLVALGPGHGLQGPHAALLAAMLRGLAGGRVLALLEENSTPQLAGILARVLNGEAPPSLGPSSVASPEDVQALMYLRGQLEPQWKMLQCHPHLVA

COc1ccc(N(C)c2nc(C)nc3ccccc23)cc1OCCCC(=O)NO [III-2, N-hydroxy-4-(2-methoxy-5-(methyl(2-methyl-4-quinazolinyl)amino)phenoxy) butanamide]
IC50 ([1]; Table 2): 100 to 1000 nM | IC50 ([1]; Table 4, Class I): 422 ± 1 nM | tumor inhibitory rate [2, 22]: 31.70% | tumor inhibitory rate [2, 23]: 25.23% | tumor inhibitory rate [2, 24]: 58.22% | tumor inhibitory rate [2, 25]: 56.88% | tumor inhibitory rate [3, 22]: no effects on inhibiting tumor growth | tumor inhibitory rate [3, 23]: no effects on inhibiting tumor growth | tumor inhibitory rate [3, 24]: 22.54% | toxicity (death of mice during the experiment) ([3]; 80 mg/kg intragastrically once every other day, a mouse died): may exhibit toxicity to a few individuals | tumor inhibitory rate [3, 25]: 58.79% | IC50 [4]: 46 ± 11 nM | IC50 [5]: 439 ± 9 nM | IC50 [6]: 386 ± 7 nM | IC50 [7]: 1180 ± 168 nM | IC50 [8]: 104 ± 29 nM | activity compared with positive control SAHA [9]: superior to that of the positive control group SAHA | tumor growth ([9]; compared with blank control, P<0.01): significantly inhibited tumor growth | IC50 [10]: 14 ± 6 nM | IC50 [11]: 63 ± 18 nM | IC50 ([12]; Liver cancer, Table 5, read-out: Half-Inhibitory Concentration IC50 HepG2): 41 ± 1 nM | IC50 ([12]; incubated for 96 hours, read-out: Half-Inhibitory Concentration IC50 Human liver cancer cell HepG2): 10 to 100 nM | IC50 ([13]; SK-OV-3, Ovarian cancer, Table 5, read-out: Half-Inhibitory Concentration IC50 SKOV-3): 50 ± 8 nM | IC50 ([13]; SK-OV-3, incubated for 96 hours, read-out: Half-Inhibitory Concentration IC50 Human ovarian cancer cell SKOV-3): 10 to 100 nM | IC50 [14]: 71 ± 31 nM | IC50 [15]: 10 to 100 nM | IC50 ([16]; NCI-H460, Lung cancer, Table 5, read-out: Half-Inhibitory Concentration IC50 H460): 55 ± 13 nM | IC50 ([16]; NCI-H460, incubated for 96 hours, read-out: Half-Inhibitory Concentration IC50 Human lung cancer cell H460): 10 to 100 nM | IC50 [17]: 60 ± 32 nM | IC50 [18]: 15 ± 4 nM | IC50 ([19]; Cervical cancer, Table 5, read-out: Half-Inhibitory Concentration IC50 Hela): 49 ± 20 nM | IC50 ([19]; incubated for 96 hours, read-out: Half-Inhibitory Concentration IC50 Human cervical cancer cell Hela): 10 to 100 nM | IC50 ([20]; IC50 HDAC8, Table 2): > 1000 nM | IC50 ([20]; read-out: IC50 HDAC8, Table 4, Class I): 3400 ± 487 nM | survival time of mice ([21]; 50 mg/kg intravenously once every other day, 9 times, vs blank control, P<0.01): significantly prolonged the survival time of mice | effect prolonging the survival time compared with positive control group ([21]; 50 mg/kg intravenously, SAHA 50 mg/kg intraperitoneally): superior to that of the positive control group
